Measured values reported in article PMC8587043, “An Investigation into the Interaction between Double Hydroxide-Based Antioxidant Benzophenone Derivatives and Cyclooxygenase 2” (Molecules, 2021).

Experiments:
COX2 = biological target: T1, COX2 (Homo sapiens, UniProt P35354); experiment: Three-dimensional fluorescence spectroscopy of COX2-compound systems; type: binding; conditions: for Peak Position λex/λem, peak 2 / Relative Intensity (I), peak 2 / Relative Intensity (I), peak 1: compound 4.50 × 10^−5 mol∙L^−1, 298 K; for Relative Intensity (I), peak 2: COX2 alone 775; for Relative Intensity (I), peak 1: COX2 alone 874
T1 construct: purchased Sino Biological Co. (Beijing, China)
T1 sequence (P35354 18-604): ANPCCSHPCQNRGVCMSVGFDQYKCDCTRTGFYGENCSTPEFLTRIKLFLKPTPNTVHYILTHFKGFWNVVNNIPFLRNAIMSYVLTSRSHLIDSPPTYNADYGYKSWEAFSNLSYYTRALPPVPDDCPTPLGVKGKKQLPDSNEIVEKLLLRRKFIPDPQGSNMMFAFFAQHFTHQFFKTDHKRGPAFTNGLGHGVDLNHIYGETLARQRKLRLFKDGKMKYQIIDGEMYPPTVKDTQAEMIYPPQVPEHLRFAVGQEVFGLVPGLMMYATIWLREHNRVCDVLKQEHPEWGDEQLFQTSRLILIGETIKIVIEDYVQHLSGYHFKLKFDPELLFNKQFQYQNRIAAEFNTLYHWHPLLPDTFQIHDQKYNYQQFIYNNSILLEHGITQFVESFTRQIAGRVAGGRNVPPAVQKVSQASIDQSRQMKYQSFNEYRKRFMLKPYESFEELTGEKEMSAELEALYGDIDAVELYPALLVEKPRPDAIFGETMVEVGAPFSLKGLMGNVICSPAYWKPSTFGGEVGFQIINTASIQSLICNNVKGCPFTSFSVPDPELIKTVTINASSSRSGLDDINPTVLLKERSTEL
Text: Three-dimensional fluorescence spectroscopy can reflect the microenvironment of related fluorophores. It was employed to study the structural changes of COX2 before and after binding. Peak 1 and peak 2 were maintained at 272/338 nm and 230/337 nm, respectively. […] Peak 2 reflected the fluorescence information of the polypeptide backbone structure of COX2, involving pi-to-pi* transition related to the secondary structure changes. According to Figure 7 and Table 3, both peak 1 and peak 2 of COX2 had been quenched. […] Furthermore, the fluorescence intensity of peak 1 was higher than that of peak 2 in the spectra for COX2-SC2 complex (Table 3). It implies that the fluorescence quenching of COX2 by compound SC2 on peak 2 was more evident than on peak 1. We could draw a conclusion that the interaction of compound SC2 with COX2 induced the slight opening of the polypeptides of protein, thereafter changing the conformation of COX2. […] Comparison of Figure 7a with Figure 7c also implied that there was a blue shift of 5.5 nm for peak 1, and 4 nm for peak 2. […] These changes induced the increase in hydrophobicity of COX2, decrease in collisions between COX2 molecules and water, and increase in the quantum yield of COX2. […] Taken together, these combined results implicate the ability of compounds DB2, SC2 and YB2 to bind to COX2.
The fluorescence intensity of the system was measured with a 1.0 cm quartz cell. […] DB2, SC2 or YB2 stock solutions were prepared in singleton at 1.5 × 10^−3 mol∙L^−1 in PBS containing 0.1% DMSO. 2.0 mL COX2 solution was separately titrated by continuing additions of 10 μL compounds DB2, SC2 or YB2 solution). After incubation at 298 K or 310 K, fluorescence quenching spectra were recorded in the region 325-450 nm at a scan rate of 1200 nm∙min^−1. The local environment of Tyr and Trp residues was quite sensitive at 280 nm, so the excitation wavelength was set at this wavelength. Typically, 280 nm is also used to measure the changes in protein tertiary structure. The slit widths of emission and excitation were both fixed at 10 nm. To observe spectra behaviors of Tyr and Trp groups of COX2, the wavelength interval between the excitation and emission wavelengths (Δλ) was set as 15 nm and 60 nm, respectively. Three-dimensional fluorescence spectroscopy was obtained for an excitation range of 200–300 nm and an emission range of 325–400 nm. Appropriate buffer solutions, determined under the same operation conditions, were used as blanks. Each spectrum was recorded three times.

EA.hy926 cells [1] = experiment: Protective effect against H2O2-induced oxidative damage, MTT assay; type: cell-based, human; conditions: for EC50: protection against H2O2-induced damage (400 µmol·L^−1, 4 h), n = 3, mean ± SD
Protocol: Hydrogen peroxide (H2O2), a small molecule and functions as oxidative stress and a second messenger which contributes to cell damage or death, could directly induce inflammation in several cell lines. H2O2-induced cell damage is a commonly used model for antioxidant activity evaluation. […] Thus, the concentration of 400 µmol·L^−1 at 4 h was chosen as the model.
Compound SC2 stock solutions were prepared in DMSO. The stock solutions were diluted with FBS free DMEM to different target concentrations (DMSO concentrations ≤ 0.5% v:v). Cells (100 μL, 2 × 10^5 cells∙mL^−1) were seeded on 96-well plates and cultured for 24 h. The medium was then replaced with fresh media containing H2O2 with different concentrations (0, 100, 200, 300, 400, 500, and 600 μmol·L^−1 in FBS free DMEM) and compound SC2 (50, 40, 30, 20, 10 µmol·L^−1), which were transferred to the incubator and cultured for additional time (2, 4, and 6 h). The medium was then replaced with 100 μL of FBS free DMEM and MTT (10 μL, 5 mg·mL^−1 in PBS) and after 4 h the medium was replaced with DMSO (100 μL). A microplate reader (SpectraMaxPlus384, Molecular Devices, United States) was used to record the absorbance at 490 nm for each well of the plates. Cell viability was measured via MTT assay. Survival rate (%) = (Asample group/Acontrol group) × 100%.
Cells (100 μL, 2 × 10^5 cells·mL^−1) were seeded in 96-well plates for 24 h. Cells were treated with different groups and cell viability was measured via MTT assay. The protection rates to oxidative damage were determined and EC50 values were calculated. The protection rates to cells were calculated using the following formula: Protection rate (%) = (Apretreatment group − Amodel group)/(Acontrol group − Amodel group) × 100%.

EA.hy926 cells [2] = experiment: LDH, MDA, ROS and SOD in H2O2-treated cells; type: cell-based, human; conditions: pretreated 24 h, then 400 μmol·L^−1 H2O2 for 4 h; p < 0.01
Protocol: In the course of oxidative stress, the balance between oxidation and antioxidant activity of cells was disturbed, and the levels of ROS, malondialdehyde (MDA) and lactate dehydrogenase (LDH) increased, while the activity of superoxide dismutase (SOD) enzyme in cells decreased.
Cells were dispensed into 24-well plate wells for 24 h and pretreated with target compound SC2 (5, 0.1, 0.05 µmol·L^−1) or the positive controls (10 µmol·L^−1) for 24 h, followed by exposure to 400 μmol·L^−1 H2O2 for 4 h. The cells were collected and the activities of LDH, MDA, SOD and ROS were determined according to the kits’ instructions.

SMILES | Peak Position λex/λem, peak 2 (COX2) | Relative Intensity (I), peak 2 (COX2) | Relative Intensity (I), peak 1 (COX2) | EC50 (EA.hy926 cells [1]; Homo sapiens, EA.hy 926, 4 h) [nM] | blue shift of peak 1 (COX2; COX2-compound vs COX2 alone) [nm] | blue shift of peak 2 (COX2; COX2-compound vs COX2 alone) [nm] | protection from H2O2 induced cell damage (EA.hy926 cells [1]; 5 µmol·L^−1 compound, four pre-chosen H2O2 treatments) | EC50 (EA.hy926 cells [1]) [nM] | LDH level compared with model group (EA.hy926 cells [2]) | MDA level compared with model group (EA.hy926 cells [2]) | ROS level compared with model group (EA.hy926 cells [2]) | SOD activity compared with model group (EA.hy926 cells [2]) | protection rate compared with positive controls (fenofibrate and quereetin) (EA.hy926 cells [1]; statistical comparison)
CCCCc1ccc(C(=O)c2c(Br)cc(O)c(O)c2O)cc1 [DB2] | 236/337 | 153 | 665 | 1360 ± 463 |  |  |  |  |  |  |  |  | 
CC(C)(C)c1ccc(C(=O)c2c(Cl)cc(O)c(O)c2O)cc1 [SC2] | 236/333 | 82.9 | 395 | 6.25 ± 0.415 | 5.5 | 4 | protects the cells from H2O2 induced cell damage | 6.25 ± 0.415 | significantly reduced | significantly reduced | significantly reduced | significantly increased | 
CC(C)Cc1ccc(C(=O)c2c(Br)cc(O)c(O)c2O)cc1 [YB2] | 236/336 | 103 | 472 | 418 ± 24.6 |  |  |  |  |  |  |  |  | no significant difference
